Experimental data from patent US9562035B2, “Benzamide derivative useful as FASN inhibitors for the treatment of cancer” (Janssen Pharmaceutica NV, priority 2013, dated 2017).

How the values were obtained:
[1] = target: T1, hFASN enzyme (full length) (Homo sapiens, UniProt P49327); experiment: Fatty Acid Synthase (FASN) Inhibition Scintillation Proximity Assay; assay type: biochemical; conditions: for IC50: mean where tested more than once, ~ = standard error of pIC50 larger than 0.5; for inhibition at 10 µM: read-out: FASN % Effect @1E−05M
T1 construct: 10 μL hFASN enzyme (full length, 300 ng, purified in house); made in house
T1 sequence (P49327 whole entry): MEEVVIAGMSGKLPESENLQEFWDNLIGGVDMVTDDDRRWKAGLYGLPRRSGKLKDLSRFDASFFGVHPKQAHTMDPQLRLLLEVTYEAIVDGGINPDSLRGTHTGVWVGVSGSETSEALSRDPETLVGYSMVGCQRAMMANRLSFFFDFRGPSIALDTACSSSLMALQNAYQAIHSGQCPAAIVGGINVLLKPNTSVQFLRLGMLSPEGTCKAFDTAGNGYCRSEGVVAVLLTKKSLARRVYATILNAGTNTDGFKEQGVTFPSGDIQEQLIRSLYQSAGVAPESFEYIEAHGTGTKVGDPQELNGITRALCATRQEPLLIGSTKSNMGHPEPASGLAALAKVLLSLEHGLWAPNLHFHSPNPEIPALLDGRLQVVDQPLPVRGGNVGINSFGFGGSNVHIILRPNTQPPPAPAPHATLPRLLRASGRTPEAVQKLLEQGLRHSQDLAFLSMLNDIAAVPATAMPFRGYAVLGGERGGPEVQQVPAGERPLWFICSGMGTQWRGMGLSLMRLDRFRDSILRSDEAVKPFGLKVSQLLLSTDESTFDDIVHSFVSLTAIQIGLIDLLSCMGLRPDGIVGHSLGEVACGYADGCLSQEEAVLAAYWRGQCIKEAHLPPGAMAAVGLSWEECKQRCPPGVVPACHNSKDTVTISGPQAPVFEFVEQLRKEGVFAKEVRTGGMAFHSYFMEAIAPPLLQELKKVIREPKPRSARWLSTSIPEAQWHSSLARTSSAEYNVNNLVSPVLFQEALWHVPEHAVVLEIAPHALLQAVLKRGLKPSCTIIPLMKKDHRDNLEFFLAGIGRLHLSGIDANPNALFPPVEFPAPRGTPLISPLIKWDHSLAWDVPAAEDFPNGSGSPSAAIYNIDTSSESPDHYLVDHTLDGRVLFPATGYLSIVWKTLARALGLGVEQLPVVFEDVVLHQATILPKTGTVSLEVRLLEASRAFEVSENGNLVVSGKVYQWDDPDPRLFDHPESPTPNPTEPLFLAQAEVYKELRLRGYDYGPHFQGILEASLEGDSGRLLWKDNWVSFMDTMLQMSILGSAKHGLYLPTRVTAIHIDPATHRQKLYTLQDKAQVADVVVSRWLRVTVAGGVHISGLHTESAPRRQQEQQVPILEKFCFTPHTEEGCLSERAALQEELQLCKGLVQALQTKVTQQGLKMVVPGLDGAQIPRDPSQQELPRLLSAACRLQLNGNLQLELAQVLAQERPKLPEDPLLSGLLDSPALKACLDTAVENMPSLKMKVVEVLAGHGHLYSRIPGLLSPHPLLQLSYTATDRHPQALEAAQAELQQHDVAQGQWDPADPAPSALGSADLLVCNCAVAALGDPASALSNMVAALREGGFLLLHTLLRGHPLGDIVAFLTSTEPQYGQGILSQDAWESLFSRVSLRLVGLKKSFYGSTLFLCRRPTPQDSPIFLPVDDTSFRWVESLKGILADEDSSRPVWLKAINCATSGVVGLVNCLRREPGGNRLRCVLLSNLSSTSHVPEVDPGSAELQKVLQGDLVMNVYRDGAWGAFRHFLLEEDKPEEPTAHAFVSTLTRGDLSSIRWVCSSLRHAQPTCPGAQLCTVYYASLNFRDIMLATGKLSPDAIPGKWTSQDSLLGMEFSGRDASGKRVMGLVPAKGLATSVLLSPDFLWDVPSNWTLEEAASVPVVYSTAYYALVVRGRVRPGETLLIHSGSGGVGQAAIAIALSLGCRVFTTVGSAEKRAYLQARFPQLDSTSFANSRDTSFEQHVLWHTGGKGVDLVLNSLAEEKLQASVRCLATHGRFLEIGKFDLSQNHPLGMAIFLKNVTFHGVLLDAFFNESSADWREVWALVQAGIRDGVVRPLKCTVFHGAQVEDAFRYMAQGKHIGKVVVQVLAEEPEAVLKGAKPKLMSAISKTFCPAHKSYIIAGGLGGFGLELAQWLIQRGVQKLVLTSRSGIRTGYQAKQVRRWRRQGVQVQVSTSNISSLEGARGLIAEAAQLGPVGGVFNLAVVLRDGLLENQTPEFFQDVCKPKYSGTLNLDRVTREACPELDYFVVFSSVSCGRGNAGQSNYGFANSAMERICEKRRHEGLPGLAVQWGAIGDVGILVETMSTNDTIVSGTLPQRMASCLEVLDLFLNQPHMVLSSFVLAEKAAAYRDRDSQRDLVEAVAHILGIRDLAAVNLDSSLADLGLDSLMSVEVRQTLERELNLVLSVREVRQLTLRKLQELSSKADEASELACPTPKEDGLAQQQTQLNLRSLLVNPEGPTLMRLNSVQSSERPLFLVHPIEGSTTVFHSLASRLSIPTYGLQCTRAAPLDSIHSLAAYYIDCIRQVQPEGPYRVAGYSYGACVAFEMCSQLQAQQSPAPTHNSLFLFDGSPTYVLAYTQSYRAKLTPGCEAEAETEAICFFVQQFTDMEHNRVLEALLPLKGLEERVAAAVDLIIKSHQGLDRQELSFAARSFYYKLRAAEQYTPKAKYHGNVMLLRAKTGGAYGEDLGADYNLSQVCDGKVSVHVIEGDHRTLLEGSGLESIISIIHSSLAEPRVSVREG
Method in brief: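 Eight compound concentrations (0.01–30 μM) tested in pH 7.5 phosphate buffer with DTT; human full-length enzyme converted [3H]-acetyl-CoA plus malonyl-CoA, with NADPH, over 60 min at room temperature. Hydrophobic [3H]-palmitate detected by bead proximity scintillation imaging; control-normalised data fitted for IC50/pIC50.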

[2] = target: T2, FASN Keto-reductase Domain (Homo sapiens, UniProt P49327); experiment: Fatty Acid Synthase Keto-Reductase Domain (FASN KR) Inhibition; assay type: biochemical; conditions: mean where tested more than once; read-out: FASN K-R Domain pIC50 (converted)
T2 construct: 10 μL hFASN enzyme (full length, 300 ng, purified in house) and 360 μM NADPH; made in house
T2 sequence (P49327 whole entry, the tested form may be a part): as the sequence (P49327 whole entry) above
Method in brief: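 Keto-reductase activity followed as NADPH consumption (A340 drop between 0 and 20 min, room temperature) using in-house full-length hFASN, 360 μM NADPH and ethyl acetoacetate substrate (180 mM stock), pH 7.5 phosphate buffer.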

A2780 ovarian cells [3] = experiment: A2780 Ovarian Cell Proliferation Assay in Lipid Reduced Medium, without Palmitate; assay type: cell-based; conditions: Homo sapiens, A2780; lipid reduced medium, without palmitate, 96 h, MTT; read-out: Proliferation A2780 w/o Palmitate pIC50 (converted)
Method in brief: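 A2780 cells were seeded in 10% FCS medium and switched next day to 10% lipid-reduced serum without palmitate. Compounds at 0.01–30 μM were added with 0.2% DMSO, 0.2% fatty-acid-free BSA and 0.25% ethanol final. After 96 h, MTT absorbance at 544 nm was normalized to plate controls, and IC50/pIC50 came from a 4-parameter logistic fit.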

A2780 ovarian cells [4] = experiment: A2780 Ovarian Cell Proliferation Assay in Lipid Reduced Medium, with Palmitate (control); assay type: cell-based; conditions: Homo sapiens, A2780; lipid reduced medium, 25 μM palmitate, 96 h, MTT; read-out: Proliferation A2780 with Palmitate pIC50 (converted)
Method in brief: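 Read-out was MTT absorbance at 544 nm after 96 h at 37 °C. Cells grown overnight in RPMI1640/10% FCS were moved to 10% lipid-reduced serum with compound plus palmitate (final 25 μM, 0.2% fatty-acid-free BSA, 0.2% DMSO). IC50 came from least-squares curve fitting, expressed as −log(IC50).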

SMILES	IC50 [1] [nM]	inhibition at 10 µM [1] [%]	IC50 [2] [nM]	IC50 (A2780 ovarian cells [3]) [nM]	IC50 (A2780 ovarian cells [4]) [nM]
COc1cc(Cl)cc(C(=O)Nc2cc(C(=O)N3CCC(c4ccc(-c5cnn(C)c5)cc4)CC3)ccc2C)c1 [Compound 128, 3-chloro-5-methoxy-N-(2-methyl-5-(4-(4-(1-methyl-1H-pyrazol-4-yl)phenyl)piperidine-1-carbonyl)phenyl)benzamide]	257	84	288	~417	6170
Cc1ccc(C(=O)N2CCC(c3ccc(-c4cnn(C)c4)cc3)CC2)cc1NC(=O)c1ccc(C#N)cc1F [Compound 129, 4-cyano-2-fluoro-N-(2-methyl-5-(4-(4-(1-methyl-1H-pyrazol-4-yl)phenyl)piperidine-1-carbonyl)phenyl)benzamide]	22.9	104	34.7	21.4	> 10000
Cc1ccc(C(=O)N2CCC(c3ccc(-c4cnn(C)c4)cc3)CC2)cc1NC(=O)c1cccs1 [Compound 130, N-(2-methyl-5-(4-(4-(1-methyl-1H-pyrazol-4-yl)phenyl)piperidine-1-carbonyl)phenyl)thiophene-2-carboxamide]	47.9	108	126	~123	> 10000
Cc1ccc(C(=O)N2CCC(c3ccc(-c4cnn(C)c4)cc3)CC2)cc1NC(=O)c1ccc(F)cc1F [Compound 131, 2,4-difluoro-N-(2-methyl-5-(4-(4-(1-methyl-1H-pyrazol-4-yl)phenyl)piperidine-1-carbonyl)phenyl)benzamide]	51.3	109	107	126	> 6170
Cc1ccc(C(=O)N2CCC(c3ccc(-c4cnn(C)c4)cc3)CC2)cc1NC(=O)c1ccccc1C(F)(F)F [Compound 132, N-(2-methyl-5-(4-(4-(1-methyl-1H-pyrazol-4-yl)phenyl)piperidine-1-carbonyl)phenyl)-2-(trifluoromethyl)benzamide]	120	97	204	339	> 10000
Cc1ccc(C(=O)N2CCC(c3ccc(-c4cnn(C)c4)cc3)CC2)cc1NC(=O)c1ccc2c(c1)OCO2 [Compound 133, N-(2-methyl-5-(4-(4-(1-methyl-1H-pyrazol-4-yl)phenyl)piperidine-1-carbonyl)phenyl)benzo[d][1,3]dioxole-5-carboxamide]	37.2	96	74.1	91.2	> 10000
Cc1ccc(C(=O)N2CCC(c3ccc(-c4cnn(C)c4)cc3)CC2)cc1NC(=O)c1ccc(NC2CCC2)nc1 [Compound 134, 6-(cyclobutylamino)-N-(2-methyl-5-(4-(4-(1-methyl-1H-pyrazol-4-yl)phenyl)piperidine-1-carbonyl)phenyl)nicotinamide]	57.5	111	52.5	~38	> 10000
COc1ccc(C(=O)Nc2cc(C(=O)N3CCC(c4ccc(-c5cnn(C)c5)cc4)CC3)ccc2C)cc1O [Compound 135, 3-hydroxy-4-methoxy-N-(2-methyl-5-(4-(4-(1-methyl-1H-pyrazol-4-yl)phenyl)piperidine-1-carbonyl)phenyl)benzamide]	16.2	107	55	87.1	> 10000

Next, values leading:

IC50 [1] [nM]	inhibition at 10 µM [1] [%]	IC50 [2] [nM]	IC50 (A2780 ovarian cells [3]) [nM]	IC50 (A2780 ovarian cells [4]) [nM]	SMILES
30.9	105	69.2	1230	~5130	Cc1ccc(C(=O)N2CCC(c3ccc(-c4cnn(C)c4)cc3)CC2)cc1NC(=O)c1cnc(Cl)nc1 [Compound 136, 2-chloro-N-(2-methyl-5-(4-(4-(1-methyl-1H-pyrazol-4-yl)phenyl)piperidine-1-carbonyl)phenyl)pyrimidine-5-carboxamide]
55	103	240	417	> 10000	Cc1ccc(C(=O)N2CCC(c3ccc(-c4cnn(C)c4)cc3)CC2)cc1NC(=O)c1cc(F)ccc1C [Compound 137, 5-fluoro-2-methyl-N-(2-methyl-5-(4-(4-(1-methyl-1H-pyrazol-4-yl)phenyl)piperidine-1-carbonyl)phenyl)benzamide]
91.2	107	195	331	> 10000	Cc1ccc(C(=O)N2CCC(c3ccc(-c4cnn(C)c4)cc3)CC2)cc1NC(=O)c1ccc(C#N)cc1 [Compound 138, 4-cyano-N-(2-methyl-5-(4-(4-(1-methyl-1H-pyrazol-4-yl)phenyl)piperidine-1-carbonyl)phenyl)benzamide]
31.6	101	95.5	97.7	> 10000	Cc1ccc(C(=O)N2CC(c3ccc(-c4cnn(C)c4)cc3)C2)cc1NC(=O)c1ccncc1 [Compound 139, N-(2-methyl-5-(3-(4-(1-methyl-1H-pyrazol-4-yl)phenyl)azetidine-1-carbonyl)phenyl)isonicotinamide]
15.8	114	39.8	~23.4	7760	Cc1ccc(C(=O)N2CC(c3ccc(-c4cnn(C)c4)cc3)C2)cc1NC(=O)c1ccc(N(C)C2CCN(C)CC2)nc1 [Compound 140, 6-(methyl(1-methylpiperidin-4-yl)amino)-N-(2-methyl-5-(3-(4-(1-methyl-1H-pyrazol-4-yl)phenyl)azetidine-1-carbonyl)phenyl)nicotinamide]
21.9	110	72.4	36.3	6610	Cc1ccc(C(=O)N2CC(c3ccc(-c4cnn(C)c4)cc3)C2)cc1NC(=O)c1ccc(N2CCN(C)CC2)nc1 [Compound 141, N-(2-methyl-5-(3-(4-(1-methyl-1H-pyrazol-4-yl)phenyl)azetidine-1-carbonyl)phenyl)-6-(4-methylpiperazin-1-yl)nicotinamide]
46.8	106	110	107	> 10000	Cc1ccc(C(=O)N2CC(c3ccc(-c4cnn(C)c4)cc3)C2)cc1NC(=O)C1CC1 [Compound 142, N-(2-methyl-5-(3-(4-(1-methyl-1H-pyrazol-4-yl)phenyl)azetidine-1-carbonyl)phenyl)cyclopropanecarboxamide]
44.7	114	170	302	> 10000	Cc1ccc(C(=O)N2CC(c3ccc(-c4cnn(C)c4)cc3)C2)cc1NC(=O)C1CCC1 [Compound 143, N-(2-methyl-5-(3-(4-(1-methyl-1H-pyrazol-4-yl)phenyl)azetidine-1-carbonyl)phenyl)cyclobutanecarboxamide]
24	106	35.5	~12.3	7760	Cc1ccc(C(=O)N2CCC(c3ccc(-c4cnn(C)c4)cc3)CC2)cc1NC(=O)c1cnc(N(C)C(C)C)nc1 [Compound 144, 2-(isopropyl(methyl)amino)-N-(2-methyl-5-(4-(4-(1-methyl-1H-pyrazol-4-yl)phenyl)piperidine-1-carbonyl)phenyl)pyrimidine-5-carboxamide]
21.9	103	33.9	69.2	10500	Cc1ccc(C(=O)N2CCC(c3ccc(-c4cnn(C)c4)cc3)CC2)cc1NC(=O)c1ccc(C(F)(F)F)cc1 [Compound 145, N-(2-methyl-5-(4-(4-(1-methyl-1H-pyrazol-4-yl)phenyl)piperidine-1-carbonyl)phenyl)-4-(trifluoromethyl)benzamide]
19.1	110	32.4	~20.4	> 10000	Cc1ccc(C(=O)N2CCC(c3ccc(-c4cnn(C)c4)cc3)CC2)cc1NC(=O)c1cnc(NC(C)C)nc1 [Compound 146, 2-(isopropylamino)-N-(2-methyl-5-(4-(4-(1-methyl-1H-pyrazol-4-yl)phenyl)piperidine-1-carbonyl)phenyl)pyrimidine-5-carboxamide]
34.7	107	138	234	> 10000	Cc1ccc(C(=O)N2CCC(c3ccc(-c4cnn(C)c4)cc3)CC2)cc1NC(=O)c1ccc(F)cc1Cl [Compound 147, 2-chloro-4-fluoro-N-(2-methyl-5-(4-(4-(1-methyl-1H-pyrazol-4-yl)phenyl)piperidine-1-carbonyl)phenyl)benzamide]
